Laboratory results reported in patent US7790687B2, “Treatment for neurodegeneration” (Proximagen Ltd., priority 2005, dated 2010).
Entries after “also recorded” stand apart in the source; their conditions may differ.

Experiments:
[1] = system: TH positive cells in primary ventral mesencephalic cell cultures; experiment: MPP+ dose response on TH positive cell number in primary ventral mesencephalic cell cultures; assay type: cell-based, rat; conditions: 24 hrs MPP+ exposure, 0.1-10 μM, n=3; read-out: EC50, dopaminergic (TH positive) cell death
Description: (§1) Primary ventral mesencephalic cell cultures: Primary cell cultures were prepared by dissecting out the ventral mesencephalon from E14 rat foetuses. The dissected tissue was pooled and incubated with 0.1% Trypsin solution. This solution was then removed and replaced with Dulbecco's modified Eagles medium (DMEM) containing 10% foetal bovine serum (FBS) and 0.25% penicillin-streptomycin-neomycin (PSN), and the tissue centrifuged for 1 minute at 200 rpm at room temperature. The supernatant was then removed, fresh medium was added and the tissue mechanically dissociated using increasing fine bore fire-polished Pasteur pipettes. Cell density was assessed using a haematocytometer and cells were plated in culture medium containing 10% FBS and 0.25% PSN at a density of 1-1.5×10^5 on sterile coverslips coated with 0.01 % poly-D-lysine. After 4 days the culture medium was removed and replaced with fresh serum free DMEM prior to treatment with MPP+ or OPN. […]
MPP+ dose response: MPP+ was dissolved in sterile PBS and the primary cell cultures were incubated for 24 hrs with one of the following concentrations of MPP+: 0.1, 0.5, 1, 2, 5, 10 μM MPP+ or vehicle (PBS). […] An EC50 was calculated (3.076±0.56) and a high (10 μM) or low (2 μM) MPP+ concentration was used to investigate the role of OPN in dopaminergic cell survival. […]

[2] = system: TH positive cells in primary ventral mesencephalic cultures; experiment: Survival of TH positive cells in primary ventral mesencephalic cultures without MPP+ treatment; assay type: cell-based, rat; conditions: 24 hrs incubation, no MPP+ (no toxin), n=3
Description: as §1
(§2) Tyrosine hydroxylase (TH) immunohistochemistry: The culture medium was removed from the cells and the coverslips were fixed in 4% paraformaldehyde prior to peroxidase detection of TH using the ABC immunohistochemical method. Coverslips were mounted and examined using a Zeiss Axiophot microscope at a 50× magnification and the number of TH positive cells on each coverslip was manually counted in four fields chosen at random.(total area: 8 mm^2).

[3] = system: TH positive cells in primary ventral mesencephalic cultures; experiment: Survival of TH positive cells in primary ventral mesencephalic cultures, pre-treatment followed by MPP+; assay type: cell-based, rat; conditions: for effect on survival/death of TH positive cells: 24 hrs pre-treatment, n=3; for concentration of maximal efficacy (TH cell survival): lowest concentration used
Description: Primary ventral mesencephalic cell cultures: Primary cell cultures were prepared by dissecting out the ventral mesencephalon from E14 rat foetuses. The dissected tissue was pooled and incubated with 0.1% Trypsin solution. This solution was then removed and replaced with Dulbecco's modified Eagles medium (DMEM) containing 10% foetal bovine serum (FBS) and 0.25% penicillin-streptomycin-neomycin (PSN), and the tissue centrifuged for 1 minute at 200 rpm at room temperature. The supernatant was then removed, fresh medium was added and the tissue mechanically dissociated using increasing fine bore fire-polished Pasteur pipettes. Cell density was assessed using a haematocytometer and cells were plated in culture medium containing 10% FBS and 0.25% PSN at a density of 1-1.5×10^5 on sterile coverslips coated with 0.01 % poly-D-lysine. After 4 days the culture medium was removed and replaced with fresh serum free DMEM prior to treatment with MPP+ or OPN. Each treatment was done in triplicate per experiment and each series of experiments was repeated a further 2 times to give a final n=3.
Manipulation of the OPN system: Cultures were incubated with one of the following treatments for 24 hrs prior to MPP+ administration (either 10 μM or 2 μM MPP+): OPN protein (1, 5, 10, 25, 50 & 100 ng/ml), anti-OPN antibody (26.5, 53, 265, 530 ng/ml and 1.325, 2.65 μg/ml), anti-αv or anti-β3 integrin receptor subunit antibody (0.02, 0.04, 0.2, 0.4, 1 & 2 μg/ml). Control groups received no MPP+ treatment.
as §2

[4] = system: OPN immunoreactivity in the rat SN; experiment: Intranigral LPS injection, OPN immunoreactivity in the SN; assay type: in vivo; conditions: compared to saline treated animals
Description: (§3) Male Wistar rats (250-280 g) were obtained from Tuck (Essex, UK) and were kept on a 12 hour light/dark cycle at 21-24° C. with 55-65% humidity with unrestricted access to rat chow and water. All experiments were conducted according to the guidelines set out in the UK Animals (Scientific Procedures) Act 1986 and approved by the King's College London Ethics Committee.
(§4) Animals were randomly divided into 4 groups (n=16 in each group) anaesthetised with halothane (4% in 5%O2:95%CO2), placed in a stereotaxic frame (Kopf Instruments) with the incisor bar set at −3.3 mm and anaesthesia maintained using halothane (1.5-2%). The heads were shaved, scalp cut, skull exposed and a burr hole drilled on the left side of the skull. The following co-ordinates for the SN were used: AP: −4.8 mm, L: +2.0 mm, V: +8.0 mm (Paxinos & Watson, 1986). A 10 μl Hamilton syringe was used and 2 μl of LPS (n=8) (5 mg/ml dissolved in 0.9% sterile saline: E. coli 055:B5; Calbiochem, Nottingham, UK) or 2 μl of vehicle (0.9% sterile saline; n=8) was delivered over a period of 2 minutes. The needle was left in situ for a further 2 minutes before being slowly withdrawn. The wound was closed using Ethicon sutures and the animals allowed to recover from anaesthesia until freely moving before being returned to their home cages. […]

[5] = system: TH positive cells in the rat SN; experiment: Intranigral LPS injection, TH immunoreactive cell number in the SN; assay type: in vivo; conditions: compared to contralateral intact SN and to saline controls, present at 24, 48, 72 and 120 hrs
Description: as §3, §4

## C[n+]1ccc(-c2ccccc2)cc1 [MPP+]
[1]
  EC50: 3.08 ± 0.56 µM

## OPN protein fragment: 15 amino acid fragment of rat osteopontin containing the RGD αvβ3 integrin binding site and the α4 and α9 integrin subunit binding sites (TVDVPDGRGDSLAYG; listed as Rattus norvegicus)
[2]
  effect on viability of TH positive cells: not found to affect the viability; also recorded: no effect
[3]; then 2 μM MPP+ for 24 hrs
  effect on survival/death of TH positive cells: almost completely protected dopaminergic cells; also recorded: increased TH cell survival
[3]; then 10 μM MPP+ for 24 hrs
  effect on survival/death of TH positive cells: almost completely protected dopaminergic cells; also recorded: increased survival of TH positive cells
[3]; then 2 μM MPP+
  concentration of maximal efficacy (TH cell survival): 1 ng/mL
[3]; then 10 μM MPP+
  concentration of maximal efficacy (TH cell survival): 1 ng/mL

## lipopolysaccharide [LPS]
[4]
  increase in OPN immunoreactivity: 14 fold
[5]
  decrease in TH positive cells in the LPS injected SN: 70%
